The text below walks through data of patent publication US9770451B2, “Composition including ATM inhibitor for reducing cellular senescence and use of the composition” (Samsung Electronics Co., Ltd., priority 2014, dated 2017).

Structures are written as SMILES.

What all share (assay type): cell-based, human
The test system of assay [1] is progeria senescent fibroblasts (passage 17). The experiment in a line: SA-β-galactosidase staining. Particulars: CP-466722 0.1 μM, 4 weeks.
The subject of assay [2] is senescent myoblasts (passage 11). The experiment in a line: Lipofuscin autofluorescence (FACS). Particulars: CP-466722 0.1 μM, 4 weeks. Here is the method:
In addition, the amounts of lipofuscin in the cells cultured as described above were measured. The senescent myoblast (passage 11) that became senescent in the presence of KU-60019 (0.5 μM) were cultured in a CO2 incubator at a temperature of 37° C. for 4 weeks. The medium was replaced by a fresh medium containing KU-60019 (0.5 μM), once every 4 days. Lipofuscin is characterized by having autofluorescence capability, and in this regard, the cultured cells were irradiated with a wavelength of 488 nm by using a FACSCaliber (Beckton Dickinson), and then, measured with radiation emitted from a wavelength of 520 nm. The results were analyzed using Cell Quest 3.2 software (Beckton Dickinson). FIG. 17 is a graph showing lipofuscin measured in the cells that were cultured in the presence of KU-60019.
In addition, the amounts of lipofuscin in the cells cultured as described above were measured. […] Lipofuscin is characterized by having autofluorescence capability, and in this regard, the cultured cells were irradiated with a wavelength of 488 nm by using a FACSCaliber (Beckton Dickinson), and then, measured with radiation emitted from a wavelength of 520 nm. The results were analyzed using Cell Quest 3.2 software (Beckton Dickinson). FIG. 23 is a graph showing lipofuscin measured in the cells that were cultured in the presence of CP-466722.

Assay [3] concerns progeria senescent fibroblasts (passage 17). The assay is described as follows: Lipofuscin autofluorescence (FACS). The settings on record: CP-466722 0.1 μM, 4 weeks. Here is the method:
In addition, the amounts of lipofuscin in the cells cultured as described above were measured. The progeria senescent fibroblasts (passage 17) that became senescent in the presence of KU-60019 (0.5 μM) were cultured in a CO2 incubator at a temperature of 37° C. for 4 weeks. The medium was replaced by a fresh medium containing KU-60019 (0.5 μM), once every 4 days. Lipofuscin is characterized by having autofluorescence capability, and in this regard, the cultured cells were irradiated with a wavelength of 488 nm by using a FACSCaliber (Beckton Dickinson), and then, measured with radiation emitted from a wavelength of 520 nm. The results were analyzed using Cell Quest 3.2 software (Beckton Dickinson). FIG. 11 is a graph showing lipofuscin measured in the cells that were cultured in the presence of KU-60019.
In addition, the amounts of lipofuscin in the cells cultured as described above were measured. […] Lipofuscin is characterized by having autofluorescence capability, and in this regard, the cultured cells were irradiated with a wavelength of 488 nm by using a FACSCaliber (Beckton Dickinson), and then, measured with radiation emitted from a wavelength of 520 nm. The results were analyzed using Cell Quest 3.2 software (Beckton Dickinson).

Assay [4] relates to senescent fibroblasts (passage 37). The assay is described as follows: Cell proliferation and formation of cell colonies (crystal violet staining). Particulars: CP-466722; staining after 4 days. Here is the method:
A human fibroblast cell line was inoculated into a Dulbecco's Modified Eagle's medium (DMEM) containing 10% fetal bovine serum (FBS), 100 units/ml of penicillin, and 100 μg/ml of streptomycin (wherein these two antibiotics were purchased from Gibro-BRL, Grand Island, N.Y.), and then, cultured in a 5% CO2 incubator at a temperature of 37° C. The fibroblast cell line (i.e., M11 strain) was a cell line derived from the foreskin of a child. When the cells were grown to about 85% confluency in a plate, the cells were subjected to subculture. The early subculture was carried out at a split ratio of 1:4, and the late subculture was carried out at a split ratio of 1:2. When the cell doubling time was 14 days, the cells were considered to be senescent fibroblasts (passages 35 to 37).
To determine the optimal concentration upon the treatment with an ATM-kinase inhibitor KU-60019 (SELLECKCHEM, S1570, salt), the senescent fibroblasts (passage 37) were inoculated into each well of a 6-well plate at a concentration of 2,000 cells/well, and then, KU-60019 was added to each well of the 6-well plate ([…]). In addition, as a negative control group, the cells were cultured under the same conditions as described above, except that a medium used herein contained a dimethyl sulfoxide (DMSO) (0.05 (v/v) %) medium. […]

In the case of `COc1cc2ncnc(-n3nc(-c4ccccn4)nc3N)c2cc1OC` [CP-466722, 2-(6,7-dimethoxyquinazolin-4-yl)-5-(pyridin-2-yl)-2H-1,2,4-triazol-3-amine], the “number of cells that express β-galactosidase vs DMSO control” value in assay [1] is given as “significantly decreased”. The “amount of lipofuscin vs control” value in assay [2] and in assay [3] was “significantly decreased” in each case. The “concentration producing best results in the cell proliferation and the formation of cell colonies” value in assay [4] came out at 0.1 µM.
